Experiment: Radical oxidation of DHAs with AAPH, LC-MS/MS quantification of 4-F4t-NeuroP
Assay type: physicochemical
Conditions: AAPH 1 mM, phosphate buffer/methanol, 37 °C, 14 h; compared to natural DHA
Description: A solution of DHA in methanol (1 mg/mL, 0.5 mL) was added to 4.5 mL of phosphate-buffered saline solution (pH = 7.3) containing 1 mM of AAPH. The mixture was heated at 37 °C for 14 h, and then allowed to reach room temperature The mixture was spiked with 4 ng of internal standard (IS: C21-15-F2t-IsoP) and then purified using solid phase extraction.
For solid-phase extraction (SPE), Oasis MAX mixed polymer phase anion exchanger cartridges were used. Aliquots of 2 mL of sample were loaded on the cartridges previously conditioned with 2 mL of methanol and equilibrated with 2 mL of 0.02 M of formic acid (pH 4.5). […] Recoveries were determined to range between 83 and 100% (see Supplementary Materials). […]
Mass spectrometry analysis was performed on an AB SCIEX QTRAP 5500 (Sciex). […] Quantification was accomplished using external calibration lines constructed with the internal standard (IS: C21-15-F2t-IsoP). The data are presented as means ± SD determined from 3 independent experiments, each performed in triplicate assay.
Standards solutions of IS (C21-15-F2t-IsoP) and NeuroP standardt (4(RS)-F4t-NeuroP) used to determine the different characteristic transitions and the elution time for each compound were prepared in methanol at 1 µg/mL from 1 mg/mL stock solution in methanol. […] Finally, calibration curves were calculated by the area ratio of the NeuroP and the internal standard.

## [2H]C([2H])(/C=C\C/C=C\C/C=C\C/C=C\C/C=C\CC)/C=C\CCC(=O)O [D2-DHA, (6,6-D2)-DHA]
  4-F4t-NeuroP formation after radical oxidation: decrease of 4-F4t-NeuroP formation

## [2H]C([2H])(C=CCC=CCC=CCC=CCC)C=CC([2H])([2H])C=CCCC(=O)O [D4-DHA, (6,6,9,9-D4)-DHA]
  4-F4t-NeuroP formation after radical oxidation: decrease of 4-F4t-NeuroP formation

— PMC6826779, “Bis-allylic Deuterated DHA Alleviates Oxidative Stress in Retinal Epithelial Cells” (Antioxidants, 2019)
